# Laboratory results published in patent US9340590B2 (priority 2011, dated 2016).
# Where “and” joins values, the source holds several entries; their conditions need not be identical. Equal values may be shown once. Entries after “also recorded” stand apart in the source; their conditions may differ. Read-outs that look alike come from different tables or passages of the source.
# Legend:
# [1] = human plasma, 37° C., incubation time 0 hr (normalisation point)
# [2] = mouse plasma, 37° C., incubation time 0 hr (normalisation point)
# [3] = target: T1, hNav1.3 (Homo sapiens, UniProt Q9NY46); assay: cell-based; format: cell-based; conditions: Nav1.3 Use IC50
# [4] = test system: TTX-sensitive Nav channels in mouse DRG neurons; format: cell-based
# [5] = target: hERG (Homo sapiens, UniProt Q12809); assay: cell-based
# [6] = target: T1, hNav1.3; assay: cell-based; conditions: IonWorks Quattro; clamped to −110 mV, depolarized to −10 mV, 5 min after compound; n=2; read-out: IWQ Use Nav1.3
# [7] = target: T2, hNav1.5 (Homo sapiens, UniProt Q14524); assay: cell-based; conditions: PatchXpress counterscreen; held at −80 mV, prepulse −120 mV, test step −30 mV; read-out: IC50 against hNav1.5 (counterscreen)
# [8] = test system: voltage-gated potassium currents; format: cell-based; conditions: 500 nM; rat DRG neuron, step to 0 mV from −90 mV
# [9] = test system: isolated perfused rabbit heart
# [10] = test system: formalin pain model in male CD-1 mice; conditions: for time spent lifting/licking, first phase / time spent lifting/licking, second phase: third study
# [11] = in vitro; conditions: mouse, plasma
# [12] = target: T3, hNav1.7 (Homo sapiens, UniProt Q15858); assay: cell-based; conditions: Nav1.7 Use IC50
# [13] = test system: locomotor activity in male CD-1 mice
# [14] = test system: isolated perfused rabbit heart; remark: listed apart in the source
# [15] = in vivo; conditions: CD-1, mouse
# [16] = in vitro; conditions: human, plasma
# [17] = target: T2, hNav1.5; assay: cell-based; conditions: IonWorks Quattro; clamped to −110 mV, depolarized to −10 mV, 5 min after compound; n=2; read-out: IWQ Use Nav1.5
# [18] = in vivo; conditions: male, CD-1, mouse, sc, terminal exposure (peptide plasma concentration at 2 h post peptide injection)
# [19] = target: hNav1.2 (Homo sapiens, UniProt Q99250); assay: cell-based; conditions: partially inactivated channels; read-out: IC50 against partially inactivated hNav1.2 channels
# [20] = test system: fast sodium current; format: cell-based; conditions: 500 nM; rat DRG neuron, step to 0 mV from −90 mV
# [21] = target: T3, hNav1.7; format: cell-based
# [22] = in vivo; conditions: male, CD-1, mouse, sc
# [23] = target: T3, hNav1.7; assay: cell-based; format: cell-based
# [24] = target: T2, hNav1.5; assay: cell-based
# [25] = target: Nav1.7 (Rattus norvegicus, UniProt O08562); conditions: read-out: TTX IC50; cited from earlier work
# [26] = target: Nav1.3 (Rattus norvegicus, UniProt P08104); conditions: read-out: TTX IC50; cited from earlier work
# [27] = target: Nav1.8 (Rattus norvegicus, UniProt Q62968); conditions: read-out: TTX IC50; cited from earlier work
# [28] = target: Nav1.4 (Rattus norvegicus, UniProt P15390); conditions: read-out: TTX IC50; cited from earlier work
# [29] = target: Nav1.6 (Rattus norvegicus, UniProt O88420); conditions: read-out: TTX IC50; cited from earlier work
# [30] = first study, 5 mg/kg s.c., 1-hour pre-treatment
# [31] = later studies (FIGS. 99-110), 5 mg/kg s.c., 1-hour pre-treatment
# T1 sequence (Q9NY46 whole entry, looked up): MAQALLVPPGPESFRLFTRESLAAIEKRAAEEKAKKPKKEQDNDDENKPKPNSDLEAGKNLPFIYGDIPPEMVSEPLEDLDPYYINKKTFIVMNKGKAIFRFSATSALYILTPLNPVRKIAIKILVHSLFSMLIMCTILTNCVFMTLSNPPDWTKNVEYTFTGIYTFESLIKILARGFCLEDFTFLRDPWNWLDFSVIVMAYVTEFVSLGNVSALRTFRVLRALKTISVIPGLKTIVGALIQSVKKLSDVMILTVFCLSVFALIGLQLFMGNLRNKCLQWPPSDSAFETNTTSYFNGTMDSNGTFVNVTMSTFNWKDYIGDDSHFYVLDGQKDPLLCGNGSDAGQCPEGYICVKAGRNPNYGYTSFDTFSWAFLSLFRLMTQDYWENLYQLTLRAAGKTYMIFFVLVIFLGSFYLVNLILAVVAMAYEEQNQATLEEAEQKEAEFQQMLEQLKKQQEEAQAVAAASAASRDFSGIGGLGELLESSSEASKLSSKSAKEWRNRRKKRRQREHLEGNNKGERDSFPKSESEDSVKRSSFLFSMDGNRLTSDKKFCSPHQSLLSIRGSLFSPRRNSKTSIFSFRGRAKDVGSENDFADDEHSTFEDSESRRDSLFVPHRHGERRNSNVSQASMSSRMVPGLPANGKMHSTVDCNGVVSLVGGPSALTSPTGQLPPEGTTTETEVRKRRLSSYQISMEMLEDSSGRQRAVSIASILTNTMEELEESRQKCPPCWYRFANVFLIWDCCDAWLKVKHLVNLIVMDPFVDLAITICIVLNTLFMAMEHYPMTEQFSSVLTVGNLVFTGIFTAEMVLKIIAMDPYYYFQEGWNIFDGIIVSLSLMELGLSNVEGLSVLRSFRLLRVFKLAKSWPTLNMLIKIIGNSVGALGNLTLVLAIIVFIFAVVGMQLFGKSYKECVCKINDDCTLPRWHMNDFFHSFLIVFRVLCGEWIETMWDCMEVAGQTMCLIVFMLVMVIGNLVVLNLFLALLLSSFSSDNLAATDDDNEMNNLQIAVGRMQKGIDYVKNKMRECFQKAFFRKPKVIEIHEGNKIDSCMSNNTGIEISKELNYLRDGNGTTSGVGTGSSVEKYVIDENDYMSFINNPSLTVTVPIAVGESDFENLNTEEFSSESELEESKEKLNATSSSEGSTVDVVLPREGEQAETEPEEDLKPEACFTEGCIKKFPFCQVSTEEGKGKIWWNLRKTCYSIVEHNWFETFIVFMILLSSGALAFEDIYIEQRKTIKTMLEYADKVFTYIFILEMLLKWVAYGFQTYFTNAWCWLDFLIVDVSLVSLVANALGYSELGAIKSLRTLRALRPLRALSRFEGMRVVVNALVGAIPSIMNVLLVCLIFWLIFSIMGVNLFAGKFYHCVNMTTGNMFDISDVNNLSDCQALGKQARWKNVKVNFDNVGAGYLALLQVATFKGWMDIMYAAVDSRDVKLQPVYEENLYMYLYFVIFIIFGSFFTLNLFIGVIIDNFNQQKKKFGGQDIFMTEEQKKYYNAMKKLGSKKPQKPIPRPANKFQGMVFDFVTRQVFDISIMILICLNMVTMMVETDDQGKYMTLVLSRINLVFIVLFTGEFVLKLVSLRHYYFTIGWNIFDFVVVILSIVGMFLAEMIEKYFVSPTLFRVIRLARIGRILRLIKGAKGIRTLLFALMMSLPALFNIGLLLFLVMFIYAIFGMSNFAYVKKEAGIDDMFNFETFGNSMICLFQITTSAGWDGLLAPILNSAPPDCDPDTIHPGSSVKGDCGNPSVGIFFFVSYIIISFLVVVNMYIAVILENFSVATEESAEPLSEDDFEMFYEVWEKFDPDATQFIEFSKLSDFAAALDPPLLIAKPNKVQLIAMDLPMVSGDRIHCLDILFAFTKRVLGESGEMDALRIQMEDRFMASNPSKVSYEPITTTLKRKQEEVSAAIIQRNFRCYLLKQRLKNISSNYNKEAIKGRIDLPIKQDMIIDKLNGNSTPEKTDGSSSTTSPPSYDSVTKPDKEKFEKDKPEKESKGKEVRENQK
# T3 sequence (Q15858 whole entry, looked up): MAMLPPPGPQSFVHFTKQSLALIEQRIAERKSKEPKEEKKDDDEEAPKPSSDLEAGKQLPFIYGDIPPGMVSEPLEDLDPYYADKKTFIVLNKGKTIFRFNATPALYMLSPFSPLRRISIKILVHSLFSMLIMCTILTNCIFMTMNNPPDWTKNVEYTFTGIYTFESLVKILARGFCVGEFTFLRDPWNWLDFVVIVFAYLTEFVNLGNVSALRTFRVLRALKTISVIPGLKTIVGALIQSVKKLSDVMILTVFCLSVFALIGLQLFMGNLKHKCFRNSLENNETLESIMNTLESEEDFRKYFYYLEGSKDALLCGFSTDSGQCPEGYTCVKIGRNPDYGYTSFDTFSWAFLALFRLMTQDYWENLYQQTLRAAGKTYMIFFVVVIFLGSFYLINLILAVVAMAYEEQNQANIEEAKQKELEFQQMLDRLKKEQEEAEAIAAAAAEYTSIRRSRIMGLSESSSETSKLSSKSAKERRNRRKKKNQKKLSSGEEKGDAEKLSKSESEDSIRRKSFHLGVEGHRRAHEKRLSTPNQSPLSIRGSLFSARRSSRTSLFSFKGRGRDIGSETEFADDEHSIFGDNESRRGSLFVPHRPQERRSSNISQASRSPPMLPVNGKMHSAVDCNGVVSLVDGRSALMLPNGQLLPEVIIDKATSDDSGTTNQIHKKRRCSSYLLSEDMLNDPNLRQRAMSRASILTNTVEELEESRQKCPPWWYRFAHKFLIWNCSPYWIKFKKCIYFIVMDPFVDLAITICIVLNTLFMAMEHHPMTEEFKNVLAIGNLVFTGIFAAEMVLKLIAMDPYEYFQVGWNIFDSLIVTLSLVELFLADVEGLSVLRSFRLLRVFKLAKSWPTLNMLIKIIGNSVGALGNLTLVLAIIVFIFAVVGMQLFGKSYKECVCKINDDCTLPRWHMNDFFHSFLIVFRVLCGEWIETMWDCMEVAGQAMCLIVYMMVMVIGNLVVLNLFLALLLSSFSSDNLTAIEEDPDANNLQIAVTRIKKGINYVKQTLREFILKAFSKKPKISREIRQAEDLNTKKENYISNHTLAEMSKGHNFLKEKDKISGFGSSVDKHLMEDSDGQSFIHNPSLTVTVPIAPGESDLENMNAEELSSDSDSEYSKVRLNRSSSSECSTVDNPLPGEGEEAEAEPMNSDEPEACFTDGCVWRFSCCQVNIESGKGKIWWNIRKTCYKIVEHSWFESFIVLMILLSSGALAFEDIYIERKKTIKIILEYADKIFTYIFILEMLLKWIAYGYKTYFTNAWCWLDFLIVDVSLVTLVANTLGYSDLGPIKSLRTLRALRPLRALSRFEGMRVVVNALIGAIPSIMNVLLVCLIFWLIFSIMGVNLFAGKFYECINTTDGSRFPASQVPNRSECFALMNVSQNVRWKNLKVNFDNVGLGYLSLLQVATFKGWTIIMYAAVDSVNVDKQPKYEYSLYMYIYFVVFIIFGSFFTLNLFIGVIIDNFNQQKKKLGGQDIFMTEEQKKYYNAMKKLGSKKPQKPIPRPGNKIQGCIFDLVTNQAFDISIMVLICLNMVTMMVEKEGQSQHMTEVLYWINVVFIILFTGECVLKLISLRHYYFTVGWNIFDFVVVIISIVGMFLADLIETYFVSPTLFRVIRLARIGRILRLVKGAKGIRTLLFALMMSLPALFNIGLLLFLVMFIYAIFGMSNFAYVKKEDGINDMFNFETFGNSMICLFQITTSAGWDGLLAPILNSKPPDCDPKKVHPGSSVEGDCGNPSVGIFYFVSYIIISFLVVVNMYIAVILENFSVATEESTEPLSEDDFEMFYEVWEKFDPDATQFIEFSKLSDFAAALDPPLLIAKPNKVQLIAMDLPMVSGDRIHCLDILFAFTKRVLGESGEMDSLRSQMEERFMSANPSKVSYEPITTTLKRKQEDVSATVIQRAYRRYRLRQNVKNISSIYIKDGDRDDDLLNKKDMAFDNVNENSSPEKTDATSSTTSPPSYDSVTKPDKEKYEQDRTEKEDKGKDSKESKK
# hERG, sequence (Q12809 whole entry): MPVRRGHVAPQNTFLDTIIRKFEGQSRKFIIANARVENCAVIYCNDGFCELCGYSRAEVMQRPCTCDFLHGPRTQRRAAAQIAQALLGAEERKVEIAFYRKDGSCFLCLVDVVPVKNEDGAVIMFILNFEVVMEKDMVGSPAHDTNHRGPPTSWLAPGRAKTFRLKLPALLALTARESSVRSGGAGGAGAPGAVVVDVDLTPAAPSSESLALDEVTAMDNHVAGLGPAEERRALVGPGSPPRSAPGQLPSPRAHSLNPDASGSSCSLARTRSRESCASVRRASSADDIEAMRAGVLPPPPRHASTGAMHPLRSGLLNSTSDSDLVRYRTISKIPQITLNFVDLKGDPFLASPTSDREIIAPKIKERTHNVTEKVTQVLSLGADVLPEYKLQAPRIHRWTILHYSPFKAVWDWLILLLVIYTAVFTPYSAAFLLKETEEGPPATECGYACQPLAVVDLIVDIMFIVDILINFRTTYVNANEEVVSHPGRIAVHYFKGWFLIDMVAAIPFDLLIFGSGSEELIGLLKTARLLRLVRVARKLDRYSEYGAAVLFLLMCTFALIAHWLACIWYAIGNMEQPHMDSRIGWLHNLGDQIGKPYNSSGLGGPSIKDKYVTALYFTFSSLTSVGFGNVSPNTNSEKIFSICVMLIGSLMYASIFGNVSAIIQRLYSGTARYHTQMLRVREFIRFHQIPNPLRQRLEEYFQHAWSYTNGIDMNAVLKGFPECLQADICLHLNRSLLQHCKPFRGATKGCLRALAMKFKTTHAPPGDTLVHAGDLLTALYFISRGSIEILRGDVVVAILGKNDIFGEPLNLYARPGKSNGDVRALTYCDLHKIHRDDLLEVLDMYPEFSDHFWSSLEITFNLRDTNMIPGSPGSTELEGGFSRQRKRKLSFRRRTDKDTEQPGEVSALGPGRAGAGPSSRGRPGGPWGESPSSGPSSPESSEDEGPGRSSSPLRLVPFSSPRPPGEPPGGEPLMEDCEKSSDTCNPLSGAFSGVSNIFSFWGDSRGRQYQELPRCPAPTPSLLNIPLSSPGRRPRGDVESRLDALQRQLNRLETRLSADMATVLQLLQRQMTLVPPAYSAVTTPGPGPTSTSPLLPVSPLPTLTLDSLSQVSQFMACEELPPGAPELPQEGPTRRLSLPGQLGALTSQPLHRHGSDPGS
compound,measurement,setting,value
CC[C@H](C)[C@@H]1NC(=O)[C@@H]2CSSC[C@@H]3NC(=O)[C@H](C(C)C)NC(=O)[C@H](CC(C)C)NC(=O)[C@H](CC(N)=O)NC(=O)[C@@H]4CCCN4C(=O)[C@H](CCCNC(=N)N)NC(=O)[C@H](CSSC[C@H](NC(=O)[C@@H](N)CC(=O)O)C(=O)N[C@@H](CC(C)C)C(=O)NCC(=O)N[C@@H](C)C(=O)N[C@@H](CCSC)C(=O)N[C@@H](CCCNC(=N)N)C(=O)N[C@@H](CCCCN)C(=O)N2)NC(=O)[C@H](CSSC[C@@H](C(=O)N[C@@H](CCCCN)C(=O)N[C@@H](Cc2ccc(O)cc2)C(=O)N[C@H](C(=O)N[C@@H](Cc2ccccc2)C(N)=O)C(C)C)NC(=O)[C@H](Cc2c[nH]c4ccccc24)NC(=O)[C@H](CCCCN)NC(=O)[C@H](Cc2cnc[nH]2)NC(=O)[C@H]([C@@H](C)O)NC(=O)[C@H](CCCNC(=N)N)NC(=O)[C@H](CO)NC3=O)NC(=O)[C@H](CCCCN)NC(=O)[C@H](CC(=O)O)NC(=O)[C@H](CC(N)=O)NC(=O)[C@H](CC(=O)O)NC(=O)[C@@H]2CCCN2C1=O [SEQ ID NO: 22],% peptide remaining,[1],100%
same,% peptide remaining,[2],100%
same,IC50,[3],129 nM and 158 nM
same,"block of TTX-sensitive Nav current, time course of increasing concentrations",[4],blocked nearly all TTX-sensitive Nav current
same,block of TTX-sensitive versus TTX-resistant Nav current,[4],selectively blocked TTX-sensitive Nay current but not TTX-resistant Nav current
same,IC50,"[4]; cells held at −140 mV, read-out: IC50 against TTX-sensitive sodium channels in mDRG neurons",17 nM
same,IC50,[5],> 10000 nM
same,IC50,[6],1750 nM
same,IC50,[7],> 30000 nM
same,tolerability in mice,1 mg/kg i.v.,tolerated
same,exposure in blood,1 mg/kg s.c.,measurable exposure
same,sustained peptide concentration in the plasma,5 mg/kg s.c.,about 0.6 μM
same,time plasma concentration was sustained,5 mg/kg s.c.,3 h
same,effect on voltage-gated potassium currents,[8],did not block voltage-gated potassium currents
same,"Flow, mean, normalized value",[9],0.29%
same,"LVDP, mean, normalized value",[9],−3.16%
same,"LVDevP, normalized value",[9],−7.22%
same,"LVSP, mean, normalized value",[9],−8.81%
same,"dP/dt+, mean, normalized value",[9],−6.55%
same,"dP/dt−, mean, normalized value",[9],−2.93%
same,LV contractility (dP/dt+),"[9]; 1 μM, 20 minutes",no effects
same,coronary blood flow (CF),"[9]; 1 μM, 20 minutes",no effects
same,coronary vasculature,"[9]; 1 μM, 20 minutes",no direct effects
same,plasma concentrations with significant reproducible reduction in paw lifting/licking,[10]; first two mouse formalin experiments,0.60 to 0.80 µM
same,"time spent lifting and/or licking the affected paw, second phase (5-40 minutes post formalin injection)","[10]; mouse, in vivo",significantly reduced
same,"time spent lifting/licking, first phase",[10]; peptide 1 mg/kg s.c.,appeared to increase
same,"time spent lifting/licking, second phase",[10]; peptide 1 mg/kg s.c.,not significantly different
same,"time spent lifting/licking, first phase",[10]; peptide 3 mg/kg s.c.,appeared to increase
same,"time spent lifting/licking, second phase",[10]; peptide 3 mg/kg s.c.,appeared to significantly increase
same,remaining at 2 h,[11],106%
same,remaining at 4 h,[11],107%
same,remaining at 8 h,[11],105%
same,remaining at 24 h,[11],99%
same,IC50,[12],18 nM and 34 nM and 30 nM and 14 nM
same,total fine movement,[13]; [30],significantly reduced
same,total time rearing,[13]; [30],significantly reduced
same,total basic movement,[13]; [31],significantly reduced
same,total fine movement,[13]; [31],significantly reduced
same,total rearing,[13]; [31],significantly reduced
same,total time rearing,[13]; [31],significantly reduced
same,peptide plasma concentrations resulting in significant effects on locomotor activity,"[13]; mouse, in vivo",> 1.5 µM
same,"HR, normalized value, mean",[14],−0.18%
same,"JT, normalized value, mean",[14],−4.57%
same,"JTcF, normalized value, mean",[14],−4.60%
same,"PR, normalized value, mean",[14],−3.52%
same,"QRS, normalized value, mean",[14],−1.55%
same,"QT, normalized value, mean",[14],−4.19%
same,"QTcF, normalized value, mean",[14],−4.22%
same,heart rate,"[14]; 1 μM, 20 minutes",no effects
same,ventricular depolarization and conduction (QRS and PR intervals),"[14]; 1 μM, 20 minutes",no effects
same,ventricular repolarization (QTc or JTc intervals),"[14]; 1 μM, 20 minutes",no delaying effects
same,half-life,"[15]; sc, 5 mg/kg",36 min
same,level at time molar,"[15]; sc, 5 mg/kg",~600 nM
same,half-life,"[15]; male, iv, 1 mg/kg",~15 min
same,remaining at 2 h,[16],105%
same,remaining at 4 h,[16],99%
same,remaining at 8 h,[16],101%
same,remaining at 24 h,[16],105%
same,IC50,[17],10300 nM
same,level at time molar at 2 h,"[18]; 3 mg/kg, first study, 3 mg/kg s.c.",890 ± 330 nM
same,level at time molar at 2 h,"[18]; 5 mg/kg, first study, 5 mg/kg s.c.",1790 ± 380 nM
same,level at time molar at 2 h,"[18]; 5 mg/kg, later studies, 5 mg/kg s.c.",2100 ± 470 nM
same,IC50,[19],265 nM
same,effect on fast sodium current,[20],blocked fast sodium current; also recorded: steadily decreased
same,inhibition of the Nav1.7 current,[21],complete inhibition
same,IC50,[21]; read-out: IC50 against partially inactivated hNav1.7 channels,13.2 nM
same,level at time molar at […],"[22]; 0.5 mg/kg, terminal exposure (peptide plasma concentration at 45 min post formalin injection), second study, 0.5 mg/kg s.c.",40 nM
same,level at time molar at […],"[22]; 1 mg/kg, terminal exposure (peptide plasma concentration at 45 min post formalin injection), third study, 1 mg/kg s.c.",200 ± 50 nM
same,level at time molar at […],"[22]; 3 mg/kg, terminal exposure (peptide plasma concentration at 45 min post formalin injection), third study, 3 mg/kg s.c.",530 ± 230 nM
same,level at time molar at […],"[22]; 5 mg/kg, terminal exposure (peptide plasma concentration at 45 min post formalin injection), second study, 5.0 mg/kg s.c.",580 ± 260 nM
same,level at time molar at […],"[22]; 5 mg/kg, terminal exposure (peptide plasma concentration at 45 min post formalin injection), third study, 5 mg/kg s.c.",1840 ± 180 nM
same,level at time molar at […],"[22]; 5 mg/kg, terminal plasma exposure (peptide plasma concentration at 45 min post formalin injection), first study, 5 mg/kg s.c.",800 ± 210 nM
same,IC50,[23],640 nM
same,IC50,[24],> 10000 nM
"NC1=N[C@H](O)[C@H]2[C@H]3O[C@]4(O)O[C@@H]([C@@H](O)[C@@]2(N1)[C@@H]4O)[C@]3(O)CO [TTX, tetrodotoxin]",IC50,[25],4 nM
same,IC50,[26],2 to 15 nM
same,IC50,[27],> 50000 nM
same,IC50,[28],5 nM
same,IC50,[29],1 nM
